In patent publication US20060293307A1, “Oxazolidinone derivatives as antimicrobials” (priority 2002, published 2006):
Converted amounts (≈) assume the structure as drawn. Read-outs that look alike come from different tables or passages of the source.

Legend:
Assay in all cases: MIC, agar incorporation method
S. aureus (Smith 49951) = assay type: cell-based, Staphylococcus aureus; details: Staphylococcus aureus; S. No. 9, S. aureus (Smith 49951); read-out: MIC
Salmonella 205 = assay type: cell-based; details: S. No. 26, Salmonella 205; read-out: MIC
Method: The compounds of the invention display antibacterial activity when tested by the agar incorporation method. The following minimum inhibitory concentrations (μg/ml) were obtained for representative compounds of the invention which are given below in the following tables.
Briefly, the compounds were dissolved in DMSO and doubling dilution of the compounds were incorporated into Meer Hilton agar before solidification. Inoculum was prepared by suspending 4 to 5 colonies into 5 ml of normal saline solution and adjusting the turbidity to 0.5 Macfarland turbidity standard tables (1.5×10^8 CFU/ml), after appropriate dilutions, 10^4 CFU/spot was transfered into the surface of dried plate and incubated for 18 hours (24 hours for MRSN studies). The concentration showing no growth of the inoculated culture was recorded as the MIC. Appropriate ATCC standard strains were simultaneously tested and result recorded only when the MIC's against standard antibiotics were within the acceptable range.

S. pneumoniae CS 1687 = assay type: cell-based, Streptococcus pneumoniae; details: Streptococcus pneumoniae, CS1687
S. pneumoniae 1251 = assay type: cell-based, Streptococcus pneumoniae; details: Streptococcus pneumoniae
E. faecium 6A (VRE) = assay type: cell-based, Enterococcus faecium; details: Enterococcus faecium; S. No. 21, E. faecium 6A (VRE); read-out: MIC
S. aureus (MRSA) 15187 = assay type: cell-based, Staphylococcus aureus; details: Staphylococcus aureus; S. No. 4, S. aureus (MRSA) 15187; read-out: MIC
Acinetobacter 9956 = assay type: cell-based; details: S. No. 30, Acinetobacter 9956; read-out: MIC
S. pyogenes 25147 = assay type: cell-based, Streptococcus pyogenes; details: Streptococcus pyogenes
Moraxella M1 = assay type: cell-based; details: S. No. 58, Moraxella M1; read-out: MIC
S. pneumoniae AB 31 = assay type: cell-based, Streptococcus pneumoniae; details: Streptococcus pneumoniae, AB31
S. pneumoniae ATCC 6303 = assay type: cell-based, Streptococcus pneumoniae; details: Streptococcus pneumoniae, ATCC6303
S. pneumoniae AB 25 = assay type: cell-based, Streptococcus pneumoniae; details: Streptococcus pneumoniae, AB25
[1] = test system: Serratia marcescens 12999; assay type: cell-based; details: S. No. 29, Serratia marcescens 12999; read-out: MIC
E. faecium 398(VRE) = assay type: cell-based, Enterococcus faecium; details: Enterococcus faecium; S. No. 22, E. faecium 398(VRE); read-out: MIC
(MRSA) 562 = assay type: cell-based, Staphylococcus aureus; details: Staphylococcus aureus; S. No. 8, (MRSA) 562; read-out: MIC
S. epidermidis 823 = assay type: cell-based, Staphylococcus epidermidis; details: Staphylococcus epidermidis
S. pneumoniae ATCC 49619 = assay type: cell-based, Streptococcus pneumoniae; details: Streptococcus pneumoniae, ATCC49619; S. No. 48, S. pneumoniae ATCC 49619; read-out: MIC
S. aureus SG 511 = assay type: cell-based, Staphylococcus aureus; details: Staphylococcus aureus, SG511
S. pneumoniae 217 = assay type: cell-based, Streptococcus pneumoniae; details: Streptococcus pneumoniae
S. pneumoniae AB 21 = assay type: cell-based, Streptococcus pneumoniae; details: Streptococcus pneumoniae, AB21
S. pneumoniae AB 22 = assay type: cell-based, Streptococcus pneumoniae; details: Streptococcus pneumoniae, AB22
S. pneumoniae AB 16 = assay type: cell-based, Streptococcus pneumoniae; details: Streptococcus pneumoniae, AB16
E. coli 25922 = assay type: cell-based; details: Escherichia coli; S. No. 25, E. coli 25922; read-out: MIC
S. aureus ATCC29213 = assay type: cell-based, Staphylococcus aureus; details: Staphylococcus aureus; S. No. 2, S. aureus ATCC29213; read-out: MIC
S. pneumoniae AB 14 = assay type: cell-based, Streptococcus pneumoniae; details: Streptococcus pneumoniae, AB14
S. epidermidis 358 = assay type: cell-based, Staphylococcus epidermidis; details: Staphylococcus epidermidis; S. No. 14, S. epidermidis 358; read-out: MIC
S. haemo ATCC 29970 = assay type: cell-based
S. pneumoniae CS1221 = assay type: cell-based, Streptococcus pneumoniae; details: Streptococcus pneumoniae; S. No. 34, S. pneumoniae CS1221; read-out: MIC
E. durans 581 = assay type: cell-based; details: Enterococcus durans; S. No. 24, E. durans 581; read-out: MIC
S. aureus (MRSA) ST450 = assay type: cell-based, Staphylococcus aureus; details: Staphylococcus aureus; S. No. 6, S. aureus (MRSA) ST450; read-out: MIC
[2] = test system: S. epidermidis (MRSE)32965; assay type: cell-based, Staphylococcus epidermidis; details: Staphylococcus epidermidis
S. pneumoniae AB 34 = assay type: cell-based, Streptococcus pneumoniae; details: Streptococcus pneumoniae, AB34; S. No. 49, S. pneumoniae AB 34; read-out: MIC
[3] = S. No. 44, S. pneumoniae CS 1687, read-out: MIC
[4] = S. No. 54, S. pneumoniae 1251, read-out: MIC
[5] = S. No. 52, S. pyogenes 25147, read-out: MIC
[6] = S. No. 36, S. pneumoniae AB 31, read-out: MIC
[7] = S. No. 50, S. pneumoniae ATCC 6303, read-out: MIC
[8] = S. No. 45, S. pneumoniae AB 25, read-out: MIC
[9] = S. No. 12, S. epidermidis 823, read-out: MIC
[10] = S. No. 3, S. aureus SG 511, read-out: MIC
[11] = S. No. 38, S. pneumoniae 217, read-out: MIC
[12] = S. No. 41, S. pneumoniae AB 21, read-out: MIC
[13] = S. No. 42, S. pneumoniae AB 22, read-out: MIC
[14] = S. No. 39, S. pneumoniae AB 16, read-out: MIC
[15] = S. No. 37, S. pneumoniae AB 14, read-out: MIC
[16] = S. No. 15, S. haemo ATCC 29970, read-out: MIC
[17] = S. No. 13, S. epidermidis (MRSE)32965, read-out: MIC

Row | Compound | MIC (S. aureus (Smith 49951)) | MIC (Salmonella 205) | MIC (E. faecium 6A (VRE)) | MIC (S. aureus (MRSA) 15187) | MIC (Acinetobacter 9956) | MIC (Moraxella M1) | MIC [1] | MIC (E. faecium 398(VRE)) | MIC ((MRSA) 562) | MIC (S. pneumoniae ATCC 49619) | MIC (E. coli 25922) | MIC (S. aureus ATCC29213) | MIC (S. epidermidis 358) | MIC (S. pneumoniae CS1221) | MIC (E. durans 581) | MIC (S. aureus (MRSA) ST450) | MIC (S. pneumoniae AB 34) | MIC (S. pneumoniae CS 1687; [3]) | MIC (S. pneumoniae 1251; [4]) | MIC (S. pyogenes 25147; [5]) | also measured
1 | CC(=O)NC[C@H]1CN(c2ccc(N3CCN(c4ccc([N+](=O)[O-])s4)CC3)c(F)c2)C(=O)O1 [Compound No. 1, (S)—N-[[3-[3-Fluoro-4-[4-(5-nitro-2-thienyl)-1-piperazinyl]phenyl]-2-oxo-5-oxazolidinyl]methyl]acetamide] | 0.25 µg/mL (≈ 0.539 µM) | > 16 µg/mL | 0.25 µg/mL (≈ 0.539 µM) | 0.25 µg/mL (≈ 0.539 µM) | > 16 µg/mL | 1 µg/mL (≈ 2.16 µM) | > 16 µg/mL | 0.25 µg/mL (≈ 0.539 µM) | 0.25 µg/mL (≈ 0.539 µM) | 0.06 µg/mL (≈ 0.129 µM) | > 16 µg/mL | 0.25 µg/mL (≈ 0.539 µM) | 0.25 µg/mL (≈ 0.539 µM) | 0.06 µg/mL (≈ 0.129 µM) | 0.25 µg/mL (≈ 0.539 µM) | 0.25 µg/mL (≈ 0.539 µM) | 0.25 µg/mL (≈ 0.539 µM) | – | – | – | MIC (S. pneumoniae CS 1687): 0.125 µg/mL (≈ 0.27 µM); MIC (S. pneumoniae 1251; 1251): 0.125 µg/mL (≈ 0.27 µM); MIC (S. pyogenes 25147; 25147): 0.125 µg/mL (≈ 0.27 µM); MIC (S. pneumoniae AB 31): 0.125 µg/mL (≈ 0.27 µM); MIC (S. pneumoniae ATCC 6303): 0.125 µg/mL (≈ 0.27 µM); MIC (S. pneumoniae AB 25): 0.125 µg/mL (≈ 0.27 µM); MIC (S. epidermidis 823; 823): 0.125 µg/mL (≈ 0.27 µM); MIC (S. aureus SG 511): 0.125 µg/mL (≈ 0.27 µM); MIC (S. pneumoniae 217; 217): 0.125 µg/mL (≈ 0.27 µM); MIC (S. pneumoniae AB 21): 0.125 µg/mL (≈ 0.27 µM); MIC (S. pneumoniae AB 22): 0.125 µg/mL (≈ 0.27 µM); MIC (S. pneumoniae AB 16): 0.125 µg/mL (≈ 0.27 µM); MIC (S. pneumoniae AB 14): 0.125 µg/mL (≈ 0.27 µM); MIC (S. haemo ATCC 29970): 0.125 µg/mL (≈ 0.27 µM); MIC ([2]; MRSE): 0.125 µg/mL (≈ 0.27 µM)
2 | CC(=O)NC[C@H]1CN(c2ccc(N3CCN(c4ccc(C=O)s4)CC3)c(F)c2)C(=O)O1 [Compound No. 2, (S)—N-[[3-[3-Fluoro-4-[4-(5-formyl-2-thienyl)-1-piperazinyl]phenyl]-2-oxo-5-oxazolidinyl]methyl]acetamide] | 0.5 µg/mL (≈ 1.12 µM) | > 16 µg/mL | 1 µg/mL (≈ 2.24 µM) | 0.5 µg/mL (≈ 1.12 µM) | > 16 µg/mL | 0.5 µg/mL (≈ 1.12 µM) | > 16 µg/mL | 0.5 µg/mL (≈ 1.12 µM) | 0.5 µg/mL (≈ 1.12 µM) | 0.5 µg/mL (≈ 1.12 µM) | > 16 µg/mL | 1 µg/mL (≈ 2.24 µM) | 0.5 µg/mL (≈ 1.12 µM) | 0.5 µg/mL (≈ 1.12 µM) | 0.5 µg/mL (≈ 1.12 µM) | 1 µg/mL (≈ 2.24 µM) | 0.5 µg/mL (≈ 1.12 µM) | 0.5 µg/mL (≈ 1.12 µM) | 0.5 µg/mL (≈ 1.12 µM) | 0.5 µg/mL (≈ 1.12 µM) | MIC (S. pneumoniae AB 31; [6]): 0.5 µg/mL (≈ 1.12 µM); MIC (S. pneumoniae ATCC 6303; [7]): 0.5 µg/mL (≈ 1.12 µM); MIC (S. pneumoniae AB 25; [8]): < 0.25 µg/mL; MIC (S. epidermidis 823; [9]): 0.5 µg/mL (≈ 1.12 µM); MIC (S. aureus SG 511; [10]): 0.5 µg/mL (≈ 1.12 µM); MIC (S. pneumoniae 217; [11]): 0.5 µg/mL (≈ 1.12 µM); MIC (S. pneumoniae AB 21; [12]): 0.5 µg/mL (≈ 1.12 µM); MIC (S. pneumoniae AB 22; [13]): 0.5 µg/mL (≈ 1.12 µM); MIC (S. pneumoniae AB 16; [14]): < 0.25 µg/mL; MIC (S. pneumoniae AB 14; [15]): < 0.25 µg/mL; MIC (S. haemo ATCC 29970; [16]): 0.5 µg/mL (≈ 1.12 µM); MIC [2, 17]: < 0.25 µg/mL
3 | CC(=O)NC[C@H]1CN(c2ccc(N3CCN(c4ccc(C=O)o4)CC3)c(F)c2)C(=O)O1 [Compound No. 3, (S)—N-[[3-[3-Fluoro-4-[4-(5-formyl-2-furyl)-1-piperazinyl]phenyl]-2-oxo-5-oxazolidinyl]methyl]acetamide] | 0.5 µg/mL (≈ 1.16 µM) | > 16 µg/mL | 0.5 µg/mL (≈ 1.16 µM) | 1 µg/mL (≈ 2.32 µM) | > 16 µg/mL | 2 µg/mL (≈ 4.65 µM) | > 16 µg/mL | 0.5 µg/mL (≈ 1.16 µM) | 0.5 µg/mL (≈ 1.16 µM) | 0.25 µg/mL (≈ 0.581 µM) | > 16 µg/mL | 1 µg/mL (≈ 2.32 µM) | 0.5 µg/mL (≈ 1.16 µM) | 0.25 µg/mL (≈ 0.581 µM) | 0.5 µg/mL (≈ 1.16 µM) | 1 µg/mL (≈ 2.32 µM) | 0.25 µg/mL (≈ 0.581 µM) | 0.25 µg/mL (≈ 0.581 µM) | 0.25 µg/mL (≈ 0.581 µM) | 0.25 µg/mL (≈ 0.581 µM) | MIC (S. pneumoniae AB 31; [6]): 0.25 µg/mL (≈ 0.581 µM); MIC (S. pneumoniae ATCC 6303; [7]): 0.25 µg/mL (≈ 0.581 µM); MIC (S. pneumoniae AB 25; [8]): 0.25 µg/mL (≈ 0.581 µM); MIC (S. epidermidis 823; [9]): 0.5 µg/mL (≈ 1.16 µM); MIC (S. aureus SG 511; [10]): 1 µg/mL (≈ 2.32 µM); MIC (S. pneumoniae 217; [11]): 0.25 µg/mL (≈ 0.581 µM); MIC (S. pneumoniae AB 21; [12]): 0.25 µg/mL (≈ 0.581 µM); MIC (S. pneumoniae AB 22; [13]): 0.25 µg/mL (≈ 0.581 µM); MIC (S. pneumoniae AB 16; [14]): 0.25 µg/mL (≈ 0.581 µM); MIC (S. pneumoniae AB 14; [15]): < 0.125 µg/mL; MIC (S. haemo ATCC 29970; [16]): 0.25 µg/mL (≈ 0.581 µM); MIC [2, 17]: 0.5 µg/mL (≈ 1.16 µM)
